Data as given in PubChem BioAssay AID652266 (Broad Institute, 2013).
Active and inactive are the calls of the source. No rule for the calls is given here.

target: Protein disulfide-isomerase A3 (Homo sapiens) (UniProt P30101); assay: inhibitors of thiol isomerase ERp57, dose response, selectivity assay, biochemical, dry powder samples, plate reader (AID 652266); conditions: purified ERp57 enzyme
Sequence (P30101 whole entry, looked up): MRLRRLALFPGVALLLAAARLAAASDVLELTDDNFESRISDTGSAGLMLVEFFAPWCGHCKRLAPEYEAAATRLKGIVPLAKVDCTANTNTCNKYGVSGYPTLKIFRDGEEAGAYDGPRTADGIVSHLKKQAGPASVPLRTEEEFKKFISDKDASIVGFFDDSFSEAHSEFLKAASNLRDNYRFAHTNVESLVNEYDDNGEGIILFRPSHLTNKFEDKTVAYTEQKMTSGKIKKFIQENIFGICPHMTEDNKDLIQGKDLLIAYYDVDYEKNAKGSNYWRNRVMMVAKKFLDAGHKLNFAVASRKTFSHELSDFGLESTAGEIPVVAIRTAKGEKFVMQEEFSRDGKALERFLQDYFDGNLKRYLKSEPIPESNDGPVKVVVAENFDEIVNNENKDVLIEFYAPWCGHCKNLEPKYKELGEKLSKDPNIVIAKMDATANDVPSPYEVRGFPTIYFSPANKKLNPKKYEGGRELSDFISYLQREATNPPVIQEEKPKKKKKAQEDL

AC50, inactive:
CCOC(=O)C1(CCOc2ccccc2)CCN(Cc2ccc(O)c(Cl)c2)CC1 > 30 µM, CCOC(=O)C1(CCOc2ccccc2)CCN(C(=O)c2ccc(O)c(Cl)c2)CC1 > 30 µM, CCOC(=O)c1c(CN2CCN(CCO)CC2)n(-c2ccccc2)c2cc(Br)c(O)cc12 > 30 µM, C/C1=C\[C@@H](O)C(C)(C)CCCC2(C)OC2C[C@@H]1OC(=O)c1ccc(O)cc1 (some centres not stated) > 30 µM, CC(C)(C)OC(=O)C1(CCOc2ccccc2)CCN(Cc2ccc(O)c(Cl)c2)CC1 > 30 µM, C/C1=C\C[C@H](OC(=O)c2ccc(O)cc2)/C(C)=C/[C@@H](O)C(C)(C)CCC1 > 30 µM, CCOC(=O)C1(CCOc2ccccc2)CCN(Cc2ccc(OC)c(Cl)c2)CC1 > 30 µM, CCN(C)C(=O)C1(CCOc2ccccc2)CCN(Cc2ccc(O)c(Cl)c2)CC1 > 30 µM, CC(C)OC(=O)C1(CCOc2ccccc2)CCN(Cc2ccc(O)c(Cl)c2)CC1 > 30 µM, CCOC(=O)C1(CCOc2ccccc2)CCN(Cc2ccc(O)cc2)CC1 > 30 µM, O=C(NC1CCCC1)C1(CCOc2ccccc2)CCN(Cc2ccc(O)c(Cl)c2)CC1 > 30 µM, O=C(Nc1ccccc1)C1(CCOc2ccccc2)CCN(Cc2ccc(O)c(Cl)c2)CC1 > 30 µM
